“Also recorded” adds a separate entry of the source. No end group written: not given here.
B1: Alpha-Defensin 5: antimicrobial peptide reported in the DSS colitis model (peptide, UniProt Q01523 20-94, looked up)
Defensin alpha 5: ESLQERADEATTQKQSGEDNQDLAISFAGNGLSALRTSGSQARATCYCRTGRCATRESLSGVCEISGRLYRLCCR
modifications: Defensin-5
notes: antimicrobial peptide reported in the DSS colitis model

How the values were obtained:
BALB/C mice = experiment: DSS induced acute colitis model of IBD, disease activity index (DAI); format: in vivo, mouse; details: DSS treated control group average DAI 3; score 0 to 4
Experimental: BALB/C mice were induced with acute colitis by feeding dextran sulfate sodium (DSS) in drinking water for one week and synthetic cathelicidin was administered intrarectally daily during colitis induction.
Mice were induced with acute colitis by being given 3% DSS (molecular weight, 36-50 kDa) according to the method described by Liu et al. (Carcinogenesis 24:1407-1413, 2003). The 3% DSS was given in their drinking water liar 7 days (from Day 0 to Day 7). Normal control mice received tap water throughout the experiment.
Intrarectal administration of AMPs Cathelicidin mCRAMP (5 mg/Kg/day), beta-Defensin 1 (1 mg/Kg/day), beta-Defensin 3 (1 mg/Kg/day), Elafin and SLPI, CCL20 (1 mg/Kg/day), lysozyme (3 mg/Kg/day)), as well as bactericidal/permeability increasing protein (1 mg/Kg/day). The mice were divided into two groups of 10, one receiving ordinary tap water and the disease group with DSS treatment. The peptides were intrarectally administrated once daily for 10 consecutive days beginning 3 dayd before DSS treatment. The PBS control mice received equal volumes of PBS (i.e., 100 ul) intrarectally.
In all tested animals, body weight, stool consistency, and presence of gross bleeding were recorded. Disease activity index (DAI) was calculated according to the method described by Cooper et al. (Lab Invest 69:238-249, 1993.). In brief, body weight loss, stool consistency, and bleeding were scored from 0 to 4, and DAI is the combined score divided by 3.
In addition, a parallel experiment using mCRAMP (0.8 mg/Kg) administered by injection into the peritoneum 3 times a week beginning at one week before DSS treatment. In this experiment, two groups of mice (10 in each) were compared were the control group received saline during DSS treatment while the treatment group received mCRAMP (0.8 mg/Kg) intraperitonculy 3 times a week.
AMPs were applied both individually or together in combination.

human psoriatic skin = experiment: Human in-vivo psoriatic lesion treatment; details: blind trial; for skin psoriatic lesion, 5 days treatment: Cathelicidin 10 ug/ml applied to lesions in a human subject
Experimental: Human in-vivo psoriatic lesion treatment: Cathelicidin 10 ug/ml or human beta defensin-2 diluted in PBS containing 0.1% BSA, or buffer carrier was applied to lesions in a human subject in a blind trial.

[1] = Infection and immunity, November 1999, p. 6084-6089; cited from earlier work
BETATC beta cell line = experiment: Thymidine incorporation cell proliferation assay; format: cell-based, mouse; details: LL-37 2 microgram/ml, 3.5 days, vs PBS control
Experimental: Murine beta cell line were treated for 3.5 days with LL-37 at 2 microgram/ml (red/dark bars) and compared to PBS control ([…]). Cell proliferation was estimated by measuring [3(H)]-thymidine incorporation and was expressed as percent of control untreated cells. A representative experiment is shown.
Antimicrobial peptides (AMPs): The antimicrobial peptides human cathelicidin LL-37: […] (SEQ ID NO: 14) was obtained from AnaSpec, USA (Catalogue numbers: 61302). Cathelicidin at 2 ug/ml was added to the plate and compared with control.
Thymidine incorporation cell proliferation assay: Cell proliferation was evaluated by measuring [3(H)]-thymidine incorporation into DNA. Cells were pulsed with [3(H)]-thymidine (1 microcurie/mL, ICN, Irvine, Calif.) for 1 hour, at 37 degrees centigrade. After incubation, cells were washed 3 times with PBS, incubated for 15 minutes at room temperature in 5% trichloroacetic acid and solubilized in 1% triton X-100. The radioactivity incorporated into the cells was counted in the [3(H)]-window of a Tricarb liquid scintillation counter. Mean values were determined from measurements of triplicate samples under each experimental condition for each experiment. Thymidine incorporation was determined as number of disintegrations per minute (DPM) per mg of protein.

Molecule	average DAI (disease activity index) (BALB/C mice)	skin psoriatic lesion, 5 days treatment (human psoriatic skin)	further results
Alpha-Defensin 6: antimicrobial peptide reported in the DSS colitis model (AFTCHCRRSCYSTEYSYGTCTVMGINHRFCCL; ends and bridges not checked; cysteine pairing not given here; UniProt Q01524 69-100, looked up)	1.8	–	–
LLGDFFRKSKEKIGKEFKRIVQRIKDFLRNLVPRTES [LL-37]	–	slight improvement	half-life in blood of humans [1]: approximately 3.4 days; cell proliferation ([3(H)]-thymidine incorporation) (BETATC beta cell line): significant BETATC beta cell line proliferation; also recorded: slight increase in cell proliferation
SKEKIGKEFKRIVQRIKDFLRNLVPRTES (listed as Homo sapiens) [SK29, fragment cathelicidin SK29]	–	slight improvement	–
beta-Defensin 3: antimicrobial peptide tested in the DSS colitis model (GIINTLQKYYCRVRGGRCAVLSCLPKEEQIGKCSTRGRKCCRRKK; ends and bridges not checked; cysteine pairing not given here; UniProt P81534 23-67, looked up)	1.8	–	–
human beta defensin-2: Human Beta-Defensin-2 peptide purchased from Sigma-Aldrich (GIGDPVTCLKSGAICHPVFCPRRYKQIGTCGLPGTKCCKKP; ends and bridges not checked; cysteine pairing not given here; UniProt O15263 24-64, looked up) [reference compound]	1.8	–	skin psoriatic lesion, seven week course of treatment (human psoriatic skin; applied to lesions in a human subject, FIG. 20): worsening of skin psoriatic legion
B1	1.8	–	–
